Test results published in article PMC6350621, “Small-molecules that covalently react with a human prolyl hydroxylase – towards activity modulation and substrate capture” (Chemical Communications (Cambridge, England), 2018).
Blank lines part the entries; values can stand above or below the compound they belong to.

What was measured:
[1] = system: HIF-1α in HeLa cells; assay: HIF-1α levels in HeLa cells by anti-HIF-1α immunoblotting; settings: 6 h
[2] = system: PHD2; parameters: method as in PMID 16782814; settings: reversible iron-binding inhibitor; cited from earlier work
[3] = target: T1, PHD2 (Homo sapiens, UniProt Q9GZT9); assay: Peptide turnover assay (CODD hydroxylation) with MALDI-MS detection; type: biochemical; settings: >95% crosslinked PHD2·Fe·compound, 30 µM compound kept in the assay
T1 construct: PHD2_181–426 (hereafter PHD2); His6 (N, cleaved yes); made in house; host or cells: bacterial culture (2x TY, kanamycin, IPTG)

[4] = target: T2, PHD2 (residues 181-426) (Homo sapiens, UniProt Q9GZT9); assay: AlphaScreen antibody based PHD2 inhibition assay; settings: preincubated versus not
[5] = target: T2, PHD2 (residues 181-426); assay: biochemical
[6] = target: T3, PHD2_181–426 (Homo sapiens, UniProt Q9GZT9); assay: Non-denaturing ESI-MS of covalent adduct formation with PHD2; type: binding; settings: for condensation (covalent adduct) with PHD2 after 5 min: equimolar PHD2 (20 μM), Fe(II) and compound; for covalent reaction with PHD2 after 20 min: equimolar PHD2 and Fe(II), cone voltage 200 V; for covalent modification of PHD2: analogues of 1/2, compared with 1/2
T3 construct: PHD2_181–426 (hereafter PHD2); His6 (N, cleaved yes); made in house; host or cells: bacterial culture (2x TY, kanamycin, IPTG)
Experimental: The interaction of the ligands with PHD2_181–426 (hereafter PHD2) was examined by non-denaturing ESI-MS, using cone voltage variation to distinguish covalent and non-covalent complexes (non-covalent interactions are typically preserved at cone voltages of 50–80 V, and dissociated at 200 V).[16]–[18] Aldehydes 1 and 2 were incubated with equimolar PHD2 and Fe(II) (37 °C; 5 or 20 min). […] Without Fe(II), neither covalent nor non-covalent adducts were observed, implying covalent conjugation involves active site Fe(II) binding, with subsequent condensation.
Fig. S2 A) Schematic representation of the assigned species formed on addition of 1 or 2 to PHD2. The results support initial non-covalent binding of the inhibitors to PHD2.Fe(II) to form B. Subsequently, condensation of a lysine residue with the aldehyde forms the covalent adduct C. (B) and (C): Non-denaturing ESI-MS data support the covalent crosslinking of 1/2 with PHD2. Conditions: PHD2 (20 µM) was incubated (37 °C, 5 or 20 min) with equimolar FeSO4 and 1 or 2, and the resulting mixtures were analysed by ESI-MS (cone voltage: 50 V or 200 V). Labelled peaks correspond to: A: Unmodified PHD2.Fe. B: Non-covalent adduct PHD2.Fe.2. C: Covalent adduct PHD2.Fe.1/2.
Fig. S6 The α,β-unsaturated amide 3 can covalently modify PHD2. (A) Schematic representation of the adducts formed upon incubation of 3 with PHD2.
PHD2. PHD2 (20 µM) was incubated (37 °C, 5 min, 1 h or 2 h) with equimolar FeSO4 and 3 or 4 before analysis by ESI-MS (cone voltage: 50 V or 200 V). Labelled peaks correspond to the following assigned complexes: A: unmodified PHD2.Fe; B: the non-covalent PHD2.Fe.3 adduct; C: the covalent PHD2.Fe.3 adduct.
2. Experimental procedures
1.1.1 Non-denaturing mass spectrometry1
Apo PHD2 was desalted using a Bio-Spin 6 Column (Bio-Rad, Hemel Hempstead, UK) into 15 mM ammonium acetate (pH 7.5). The stock solution was diluted with the same buffer to a final concentration of 100 μM. FeSO4·7H2O was dissolved in 20 mM HCl at a concentration of 100 mM. This solution was then diluted with MilliQ purified water to give a final working concentration of 100 μM. The protein was mixed with the Fe(II) solution and the inhibitor solution to give final concentrations of 20 μM PHD2, 20 μM Fe(II), and 20 μM inhibitor. The resultant solution was incubated for the appropriate time (specified in the text) at 37 […]
(5 min or 20 min) at 37 °C. After incubation, the samples were immediately analysed by ESI-MS. Data were acquired using a Q-TOF mass spectrometer (Q-TOF micro, Micromass, Altrincham, UK) interfaced with a Nanomate (Advion Biosciences, Ithaca, NY, USA) with a chip voltage of 1.70 kV and a delivery pressure 0.5 psi (1 psi = […]). The sample cone voltage was typically 200 or 50 V with a source temperature of 40 °C and with an acquisition/scan time of 10s/1s. Sample acquisition was performed in positive ion mode in the range of 2000-4000 m/z. The pressure at the interface between the atmospheric source and the high vacuum region was fixed at 6.30 mbar. External instrument calibration was achieved using sodium iodide.

[7] = target: T4, KDM4D (Homo sapiens, UniProt Q6B0I6); assay: AlphaScreen assay KDM4D
T4 sequence (Q6B0I6 1-523): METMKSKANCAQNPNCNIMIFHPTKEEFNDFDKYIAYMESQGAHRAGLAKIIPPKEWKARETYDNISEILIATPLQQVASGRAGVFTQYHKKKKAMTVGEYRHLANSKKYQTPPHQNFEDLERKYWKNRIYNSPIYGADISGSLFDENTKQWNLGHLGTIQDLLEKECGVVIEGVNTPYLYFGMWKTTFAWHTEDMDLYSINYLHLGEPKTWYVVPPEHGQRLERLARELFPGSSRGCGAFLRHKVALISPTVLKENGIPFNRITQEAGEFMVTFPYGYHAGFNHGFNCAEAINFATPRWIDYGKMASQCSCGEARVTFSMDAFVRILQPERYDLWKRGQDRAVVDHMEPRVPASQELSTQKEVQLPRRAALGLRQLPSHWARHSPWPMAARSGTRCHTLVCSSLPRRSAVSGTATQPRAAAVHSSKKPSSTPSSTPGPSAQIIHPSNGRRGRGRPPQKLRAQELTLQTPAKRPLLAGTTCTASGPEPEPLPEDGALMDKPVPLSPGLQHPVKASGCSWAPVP

[8] = target: KDM6B (Homo sapiens, UniProt O15054); assay: AlphaScreen assay KDM6B
[9] = target: KDM5B (Homo sapiens, UniProt Q9UGL1); assay: AlphaScreen assay KDM5B
[10] = target: T5, KDM4A (Homo sapiens, UniProt O75164); assay: AlphaScreen assay KDM4A
T5 sequence (O75164 1-1064): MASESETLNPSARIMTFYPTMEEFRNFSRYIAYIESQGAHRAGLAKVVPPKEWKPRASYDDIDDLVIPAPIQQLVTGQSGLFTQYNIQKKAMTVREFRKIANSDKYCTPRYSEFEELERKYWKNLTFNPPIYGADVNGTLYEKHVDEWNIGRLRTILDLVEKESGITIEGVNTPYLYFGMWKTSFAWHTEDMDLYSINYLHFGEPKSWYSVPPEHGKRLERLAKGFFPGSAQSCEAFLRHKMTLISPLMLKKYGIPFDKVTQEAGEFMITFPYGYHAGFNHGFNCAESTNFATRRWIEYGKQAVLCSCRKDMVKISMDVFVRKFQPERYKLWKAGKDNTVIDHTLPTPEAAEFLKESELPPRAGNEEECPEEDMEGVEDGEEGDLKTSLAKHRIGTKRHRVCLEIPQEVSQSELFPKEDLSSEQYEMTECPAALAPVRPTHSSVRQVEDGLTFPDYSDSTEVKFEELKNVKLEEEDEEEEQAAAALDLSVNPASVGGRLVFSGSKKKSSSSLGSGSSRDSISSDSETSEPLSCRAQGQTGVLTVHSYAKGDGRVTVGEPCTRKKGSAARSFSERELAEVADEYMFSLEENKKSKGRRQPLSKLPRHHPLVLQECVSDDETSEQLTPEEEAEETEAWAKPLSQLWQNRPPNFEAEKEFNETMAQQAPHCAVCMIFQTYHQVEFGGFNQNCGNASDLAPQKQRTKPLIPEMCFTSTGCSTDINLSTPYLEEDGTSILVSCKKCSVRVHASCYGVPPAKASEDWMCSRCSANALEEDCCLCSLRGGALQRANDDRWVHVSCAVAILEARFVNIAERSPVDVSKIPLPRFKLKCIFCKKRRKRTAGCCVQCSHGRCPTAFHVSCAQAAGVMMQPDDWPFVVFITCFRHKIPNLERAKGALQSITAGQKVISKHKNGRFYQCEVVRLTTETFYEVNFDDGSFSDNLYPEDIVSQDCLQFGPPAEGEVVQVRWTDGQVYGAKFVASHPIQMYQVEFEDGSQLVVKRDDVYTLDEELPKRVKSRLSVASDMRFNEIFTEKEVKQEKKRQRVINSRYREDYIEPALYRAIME

T3 sequence (Q9GZT9 181-426): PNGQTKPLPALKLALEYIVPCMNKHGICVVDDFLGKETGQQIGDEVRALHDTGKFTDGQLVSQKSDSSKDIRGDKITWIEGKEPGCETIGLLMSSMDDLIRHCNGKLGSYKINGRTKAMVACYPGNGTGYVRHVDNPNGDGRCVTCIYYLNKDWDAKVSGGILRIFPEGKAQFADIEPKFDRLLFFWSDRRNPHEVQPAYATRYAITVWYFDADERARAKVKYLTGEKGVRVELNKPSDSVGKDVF
T2 sequence (Q9GZT9 181-426): as above
T1 sequence (Q9GZT9 181-426): as above
KDM5B, sequence (Q9UGL1 whole entry, species assumed): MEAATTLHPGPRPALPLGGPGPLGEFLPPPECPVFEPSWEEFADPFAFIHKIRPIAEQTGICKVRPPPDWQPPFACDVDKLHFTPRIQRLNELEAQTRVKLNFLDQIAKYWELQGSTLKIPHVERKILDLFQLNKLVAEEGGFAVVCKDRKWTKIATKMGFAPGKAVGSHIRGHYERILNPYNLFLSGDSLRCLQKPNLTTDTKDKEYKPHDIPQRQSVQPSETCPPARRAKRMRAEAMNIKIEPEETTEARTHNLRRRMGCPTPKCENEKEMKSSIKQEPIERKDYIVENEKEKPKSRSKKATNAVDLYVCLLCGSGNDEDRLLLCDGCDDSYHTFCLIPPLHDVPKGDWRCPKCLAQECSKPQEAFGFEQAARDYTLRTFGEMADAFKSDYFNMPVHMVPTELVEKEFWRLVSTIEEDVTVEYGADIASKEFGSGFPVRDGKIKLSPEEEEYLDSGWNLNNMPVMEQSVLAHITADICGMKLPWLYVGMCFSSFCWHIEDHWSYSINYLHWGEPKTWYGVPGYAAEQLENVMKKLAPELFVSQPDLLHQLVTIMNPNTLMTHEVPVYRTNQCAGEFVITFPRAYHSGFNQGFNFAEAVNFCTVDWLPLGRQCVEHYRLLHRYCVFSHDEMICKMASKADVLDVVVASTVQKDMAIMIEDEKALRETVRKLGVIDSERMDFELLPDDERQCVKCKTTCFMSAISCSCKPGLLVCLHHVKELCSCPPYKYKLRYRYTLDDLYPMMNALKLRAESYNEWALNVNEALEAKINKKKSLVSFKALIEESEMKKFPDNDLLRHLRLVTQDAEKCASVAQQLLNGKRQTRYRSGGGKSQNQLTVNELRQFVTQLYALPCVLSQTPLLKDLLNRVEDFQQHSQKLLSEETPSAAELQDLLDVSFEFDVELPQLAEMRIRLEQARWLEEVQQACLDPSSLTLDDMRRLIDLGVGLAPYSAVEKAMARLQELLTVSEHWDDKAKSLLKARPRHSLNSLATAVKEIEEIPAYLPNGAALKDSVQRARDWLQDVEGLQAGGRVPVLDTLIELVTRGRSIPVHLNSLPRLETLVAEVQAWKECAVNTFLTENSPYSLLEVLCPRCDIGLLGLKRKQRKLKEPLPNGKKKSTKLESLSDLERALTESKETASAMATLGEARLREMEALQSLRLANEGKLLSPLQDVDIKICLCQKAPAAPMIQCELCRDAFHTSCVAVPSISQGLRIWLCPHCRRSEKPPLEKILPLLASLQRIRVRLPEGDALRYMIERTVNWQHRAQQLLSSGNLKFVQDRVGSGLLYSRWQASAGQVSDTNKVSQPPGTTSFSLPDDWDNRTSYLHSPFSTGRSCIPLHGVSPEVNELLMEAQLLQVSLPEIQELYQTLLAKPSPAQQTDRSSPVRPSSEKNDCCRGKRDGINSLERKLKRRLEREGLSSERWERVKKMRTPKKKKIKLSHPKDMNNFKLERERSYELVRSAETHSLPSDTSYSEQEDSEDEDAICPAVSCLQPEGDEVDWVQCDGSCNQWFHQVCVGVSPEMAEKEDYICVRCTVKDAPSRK
KDM6B, sequence (O15054 whole entry, species assumed): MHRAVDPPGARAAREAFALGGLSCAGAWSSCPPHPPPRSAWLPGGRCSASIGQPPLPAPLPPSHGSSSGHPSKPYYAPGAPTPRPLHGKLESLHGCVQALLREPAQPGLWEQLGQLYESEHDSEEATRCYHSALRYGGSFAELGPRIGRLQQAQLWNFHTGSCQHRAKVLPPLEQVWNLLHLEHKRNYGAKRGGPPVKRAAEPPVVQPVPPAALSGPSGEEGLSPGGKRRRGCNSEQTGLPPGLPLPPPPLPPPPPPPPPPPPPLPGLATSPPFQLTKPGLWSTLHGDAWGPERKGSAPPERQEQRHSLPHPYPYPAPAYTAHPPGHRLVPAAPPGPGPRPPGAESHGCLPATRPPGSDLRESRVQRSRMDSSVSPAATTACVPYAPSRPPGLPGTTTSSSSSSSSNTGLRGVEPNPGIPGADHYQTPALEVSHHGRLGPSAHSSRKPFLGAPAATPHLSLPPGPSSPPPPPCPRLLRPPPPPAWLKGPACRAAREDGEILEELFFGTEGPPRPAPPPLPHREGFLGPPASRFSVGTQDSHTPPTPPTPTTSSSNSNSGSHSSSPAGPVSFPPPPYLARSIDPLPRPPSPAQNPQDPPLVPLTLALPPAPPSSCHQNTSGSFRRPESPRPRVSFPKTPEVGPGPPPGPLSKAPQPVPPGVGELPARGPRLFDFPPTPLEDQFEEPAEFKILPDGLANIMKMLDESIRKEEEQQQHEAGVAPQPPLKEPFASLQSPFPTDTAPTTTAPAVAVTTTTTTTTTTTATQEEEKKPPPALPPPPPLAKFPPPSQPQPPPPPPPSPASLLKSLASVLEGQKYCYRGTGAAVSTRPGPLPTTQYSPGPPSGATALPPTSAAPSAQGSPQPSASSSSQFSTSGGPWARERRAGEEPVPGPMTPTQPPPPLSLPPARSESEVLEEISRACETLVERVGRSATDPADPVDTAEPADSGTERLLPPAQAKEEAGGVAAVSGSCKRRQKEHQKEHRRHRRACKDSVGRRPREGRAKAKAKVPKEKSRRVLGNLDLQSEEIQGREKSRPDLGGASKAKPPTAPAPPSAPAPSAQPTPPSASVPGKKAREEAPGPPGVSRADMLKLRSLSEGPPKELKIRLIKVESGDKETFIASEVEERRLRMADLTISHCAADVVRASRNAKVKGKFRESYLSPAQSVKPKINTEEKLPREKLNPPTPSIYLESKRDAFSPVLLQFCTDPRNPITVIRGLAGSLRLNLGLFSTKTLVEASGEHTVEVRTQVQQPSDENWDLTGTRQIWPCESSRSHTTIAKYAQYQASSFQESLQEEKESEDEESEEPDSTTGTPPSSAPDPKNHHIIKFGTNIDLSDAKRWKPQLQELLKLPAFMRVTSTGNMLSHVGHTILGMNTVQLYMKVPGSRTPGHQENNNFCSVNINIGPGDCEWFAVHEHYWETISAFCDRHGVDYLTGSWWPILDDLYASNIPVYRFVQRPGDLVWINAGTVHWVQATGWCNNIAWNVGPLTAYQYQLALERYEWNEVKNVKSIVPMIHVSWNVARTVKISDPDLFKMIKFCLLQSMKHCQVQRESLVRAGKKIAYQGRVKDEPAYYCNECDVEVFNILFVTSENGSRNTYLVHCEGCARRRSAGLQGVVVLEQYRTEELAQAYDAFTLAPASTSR

Compound: CCOC(=O)CNC(=O)c1cccc(C=O)c1O [compound 5]
- HIF-1α upregulation in HeLa cells ([1]; 0-500 μM): caused upregulation of HIF-1α
- HIF-1α upregulation in HeLa cells at high concentrations ([1]; >250 μM): more pronounced HIF-1α upregulation

- catalytic activity (CODD hydroxylation) of PHD2 covalently modified by the compound [3]: apparently active
- drop of IC50 on preincubation [4]: ~2 fold
- IC50 [5]: > 100 µM
- condensation (covalent adduct) with PHD2 after 5 min ([6]; 37 °C): complete condensation
- covalent reaction with PHD2 after 20 min ([6]; 37 °C): react with PHD2
Compound: O=Cc1cccc(C(=O)NCC(=O)O)c1O [compound 1]
- HIF-1α upregulation in HeLa cells ([1]; 50 or 250 µM): no upregulation of HIF-1α

- IC50 [7]: 10.3 µM
- IC50 [8]: 8.4 µM
- IC50 [9]: 13.6 µM
- IC50 [10]: 18.2 µM
Compound: C=CC(=O)Nc1cc(N=[N+]=[N-])cc(C(=O)NCC(=O)O)c1O [compound 7]

- catalytic activity (CODD hydroxylation) of PHD2 covalently modified by the compound [3]: apparently active
- drop of IC50 on preincubation [4]: ~2 fold
- IC50 [5]: > 100 µM
- condensation (covalent adduct) with PHD2 after 5 min ([6]; 37 °C): ~30%
- covalent reaction with PHD2 after 20 min ([6]; 37 °C): react with PHD2
Compound: O=Cc1c(O)c(C(=O)NCC(=O)O)cc2ccccc12 [compound 2]
- HIF-1α upregulation in HeLa cells ([1]; 50 or 250 µM): no upregulation of HIF-1α

- covalent adduct with PHD2 after up to 2 h ([6]; equimolar PHD2/Fe(II), 37 °C, up to 2 h): No covalent adduct
Compound: C=CCc1cccc(C(=O)NCC(=O)O)c1O [compound 4]

- covalent modification of PHD2 [6]: No covalent modification
Compound: O=Cc1ccc(O)c(C(=O)NCC(=O)O)c1 [S1]

- covalent modification of PHD2 [6]: Some apparent covalent modification
Compound: O=Cc1cccc(C(=O)NCC(=O)O)n1 [S4]
